The results in this text go back to US20240327393A1 (SIRONAX LTD., priority 2021, published 2024).

Read-outs that look alike come from different tables or passages of the source.

This test concerns HT-1080 (ATCC, CCL-121) cells. Description: HT-1080 cell viability assay with ferroptosis inducer RSL3 (Cell Titer-Glo). It is filed as cell-based. Conditions: Homo sapiens, HT-1080 cells treated with RSL3, 3-fold, 10-point dilution, 1.1 μM highest concentration, read-out: EC50 (nM), ferroptosis inhibitory activity. In short, it runs like this: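 HT-1080 cells (6000 per well) were cultured overnight at 37 °C, then co-treated with RSL3 and compound in a 3-fold, 10-point series topping at 1.1 μM. Viability was read by CellTiter-Glo luminescence and normalized to untreated controls. EC50 came from a sigmoidal non-linear regression fit.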
A general note: In ATP-based viability assays light output follows the ATP content of the culture.

As to `COC1(C(F)(F)F)CCN(c2ccc(Nc3ccc4c(c3)OCC(=O)N4)c(C)n2)CC1` [Compound 503, 7-((6-(4-methoxy-4-(trifluoromethyl)piperidin-1-yl)-2-methylpyridin-3-yl)amino)-2H-benzo[b][1,4]oxazin-3(4H)-one], the EC50 (Table 3) was 0.1 to 100 nM. As to `Cc1cc(N2CCC(C)(O)CC2)ccc1Nc1ccc2c(c1)OCC(=O)N2` [Compound 541, 7-((4-(4-hydroxy-4-methylpiperidin-1-yl)-2-methylphenyl)amino)-2H-benzo[b][1,4]oxazin-3(4H)-on], the EC50 (Table 3) lay within 100 to 1000 nM. For `CCNC(=O)c1cn(C)c2ccc(Nc3ccc(N4CCC(C)CC4)cc3)cc12` [Compound 365, N-ethyl-1-methyl-5-((4-(4-methylpiperidin-1-yl)phenyl)amino)-1H-indole-3-carboxamide], the EC50 (Table 2) lay within 0.1 to 100 nM. Turning to `CN(C)CCN1C(=O)COc2cc(Nc3ccc(N4CCC(C(F)(F)F)CC4)cc3)ccc21` [Compound 94, 4-(2-(dimethylamino)ethyl)-7-((4-(4-(trifluoromethyl)piperidin-1-yl)phenyl)amino)-2H-benzo[b][1,4]oxazin-3(4H)-one], the EC50 (Table 2) was 0.1 to 100 nM. For `CC1(O)CCN(c2ccc(Nc3ccc4c(c3)OCC(=O)N4)cc2)CC1` [Compound 540, 7-((4-(4-hydroxy-4-methylpiperidin-1-yl)phenyl)amino)-2H-benzo[b][1,4]oxazin-3(4H)-one], for the setting “Table 3”, the EC50 fell in the range of 100 to 1000 nM. On to `Cc1cc(N2CCC(F)CC2)ccc1Nc1cnc2c(c1)OCC(=O)N2` [Compound 558, 7-(4-(4-fluoropiperidin-1-yl)-2-methylphenylamino)-2H-pyrido[3,2-b][1,4]oxazin-3(4H)-one], for which the EC50 (Table 3) is 0.1 to 100 nM. Turning to `Cn1c(=O)c2ccc(Nc3ccc(N4CCC(C(F)(F)F)CC4)cc3)cc2n1C(=O)OC(C)(C)C` [Compound 188, tert-butyl 2-methyl-3-oxo-6-((4-(4-(trifluoromethyl)piperidin-1-yl)phenyl)amino)-2,3-dihydro-1H-indazole-1-carboxylate], the EC50 (Table 2) fell in the range of 100 to 1000 nM. On the same count and under the same terms, under `CCCCCc1ccc(Nc2ccc3c(c2)OCC(=O)N3C)cc1` [Compound 6, 4-methyl-7-((4-pentylphenyl)amino)-2H-benzo[b][1,4]oxazin-3(4H)-one] stands 0.1 to 100 nM. Take `Cn1nnc2ccc(Nc3ccc(N4CCC(C(F)(F)F)CC4)cc3)cc21` [Compound 314, 1-methyl-N-(4-(4-(trifluoromethyl)piperidin-1-yl)phenyl)-1H-benzo[d][1,2,3]triazol-6-amine]: the EC50 (Table 2) lay within 0.1 to 100 nM. Take `CC1CCN(c2ccc(Nc3cc4c(c([N+](=O)[O-])c3)CN(C(=O)C(F)(F)F)C4)cc2)CC1` [Compound 255, 2,2,2-trifluoro-1-(6-((4-(4-methylpiperidin-1-yl)phenyl)amino)-4-nitroisoindolin-2-yl)ethan-1-one]: where the note is “Table 2”, the EC50 lay within 0.1 to 100 nM.

Consider `Cc1cc(N2CC(C)OC(C)C2)ccc1Nc1ccc2c(c1)CCNC2` (centres unmarked) [Compound 528, N-(4-(2,6-dimethylmorpholino)-2-methylphenyl)-1,2,3,4-tetrahydroisoquinolin-6-amine], for which, where the note is “Table 3”, the EC50 was 0.1 to 100 nM. With `Cc1cc(N2CCC(C(F)(F)F)C2)ccc1Nc1ccc2c(c1)OCC(N)C(=O)N2` (centres unmarked) [Compound 613, 3-amino-8-((2-methyl-4-(3-(trifluoromethyl)pyrrolidin-1-yl)phenyl)amino)-2,3-dihydrobenzo[b][1,4]oxazepin-4(5H)-one], for the setting “Table 3”, the EC50 was 0.1 to 100 nM. The same measure, in the same setting: for `Cc1cc(N2CC(C)C2)ccc1Nc1ccc2c(c1)OCC(=O)N2` [Compound 577, 7-((2-methyl-4-(3-methylazetidin-1-yl)phenyl)amino)-2H-benzo[b][1,4]oxazin-3(4H)-one] the value was 0.1 to 100 nM; for `CN1C(=O)COc2cc(Nc3ccc(N4CCC(C(F)(F)F)CC4)cc3)c(N)cc21` [Compound 469, 6-amino-4-methyl-7-((4-(4-(trifluoromethyl)piperidin-1-yl)phenyl)amino)-2H-benzo[b][1,4]oxazin-3(4H)-one], 0.1 to 100 nM.

Take `CN1C(=O)COc2cc(Nc3ccc4cc(N5CCC(C(F)(F)F)CC5)ccc4c3)ccc21` [Compound 72, 4-methyl-7-((6-(4-(trifluoromethyl)piperidin-1-yl)naphthalen-2-yl)amino)-2H-benzo[b][1,4]oxazin-3(4H)-one]: the EC50 (Table 2) is 0.1 to 100 nM.

Turning to `COc1c(Nc2ccc(N3CCC(C(F)(F)F)CC3)cc2)ccc2c1CN(C)C2=O` [Compound 301, 4-methoxy-2-methyl-5-((4-(4-(trifluoromethyl)piperidin-1-yl)phenyl)amino)isoindolin-1-one], the EC50 (Table 2) was in the range of 0.1 to 100 nM. Consider `CN1Cc2cc(Nc3ccc(N4CCCCC4)c(C(F)(F)F)c3)ccc2C1=O` [Compound 178, 2-methyl-5-((4-(piperidin-1-yl)-3-(trifluoromethyl)phenyl)amino) isoindolin-1-one], for which the EC50 (Table 2) lay in the range of 0.1 to 100 nM. Take `CC1CCN(c2ccc(Nc3ccc4c(c3)n(C)c(=O)n4C)cn2)CC1` [Compound 276, 1,3-dimethyl-5-((6-(4-methylpiperidin-1-yl)pyridin-3-yl)amino)-1,3-dihydro-2H-benzo[d]imidazol-2-one]: for the setting “Table 2”, the EC50 was in the range of 0.1 to 100 nM. With `Cc1cc(=O)oc2cc(Nc3ccc(N4CCC(C(F)(F)F)CC4)cc3)ccc12` [Compound 119, 4-methyl-7-((4-(4-(trifluoromethyl)piperidin-1-yl)phenyl)amino)-2H-chromen-2-one], for the setting “Table 2”, the EC50 fell in the range of 0.1 to 100 nM. Take `CC1CN(c2ccc(Nc3ccc4c(C(N)=O)cn(C)c4c3)cc2)CC(C)O1` (centres unmarked) [Compound 442, 6-((4-(2,6-dimethylmorpholino)phenyl)amino)-1-methyl-1H-indole-3-carboxamide]: the EC50 (Table 2) lay in the range of 0.1 to 100 nM. Still for that read-out and setting: for `CN1Cc2cc(Nc3ccc(N4CCC(C)(C)CC4)cc3)ccc2C1=O` [Compound 211, 5-((4-(4,4-dimethylpiperidin-1 yl)phenyl)amino)-2-methylisoindolin-1-one] the value was 0.1 to 100 nM; for `CN1C(=O)COc2cc(Nc3ccc(F)c(N4CCC(C(F)(F)F)CC4)c3)ccc21` [Compound 33, 7-((4-fluoro-3-(4-(trifluoromethyl)piperidin-1-yl)phenyl)amino)-4-methyl-2H-benzo[b][1,4]oxazin-3(4H)-one], 0.1 to 100 nM. For the compound `CCC1CN(c2ccc(Nc3ccc4c(c3)ncn4C)c(C)n2)CCO1` (centres unmarked) [Compound 603, N-[6-(2-ethylmorpholin-4-yl)-2-methylpyridin-3-yl]-1-methyl-1,3-benzodiazol-5-amine], the EC50 (Table 3) lay in the range of 0.1 to 100 nM.

`CC1CN(c2c(F)cc(Nc3ccc4c(c3)OCC(=O)N4C)cc2F)CC(C)O1` (centres unmarked) [Compound 67]: the EC50 (Table 2) was 0.1 to 100 nM. Consider `Cn1c(=O)n(C)c2cc(Nc3ccc(C4CCCCC4)cc3)ccc21` [Compound 394, 5-((4-cyclohexylphenyl)amino)-1,3-dimethyl-1,3-dihydro-2H-benzo[d]imidazol-2-one], for which, for the setting “Table 2”, the EC50 fell in the range of 0.1 to 100 nM. Regarding `COc1cc(Nc2cnc3c(c2)OCC(=O)N3)ccc1N1CCC(C(F)(F)F)CC1` [Compound 465, 7-((3-methoxy-4-(4-(trifluoromethyl)piperidin-1-yl)phenyl)amino)-2H-pyrido[3,2-b][1,4]oxazin-3(4H)-one], the EC50 (Table 3) was 0.1 to 100 nM. As for `Cn1c(=O)n(C)c2cc(Nc3ccc4nccn4c3)ccc21` [Compound 310, 5-(imidazo[1,2-a]pyridin-6-ylamino)-1,3-dimethyl-1,3-dihydro-2H-benzo[d]imidazol-2-one], the EC50 (Table 2) fell in the range of 0.1 to 100 nM. With `COc1cc(Nc2ccc(N3CCC(C(F)(F)F)CC3)cc2C)cc2c1NC(=O)CO2` [Compound 564, 5-methoxy-7-((2-methyl-4-(4-(trifluoromethyl)piperidin-1-yl)phenyl)amino)-2H-benzo[b][1,4]oxazin-3(4H)-one], the EC50 (Table 3) lay in the range of 0.1 to 100 nM. In the case of `CNCCCn1cc2cc(Nc3ccc(N4CCC(C(F)(F)F)CC4)cc3)ccc2n1` [Compound 415, 2-(3-(methylamino)propyl)-N-(4-(4-(trifluoromethyl)piperidin-1-yl)phenyl)-2H-indazol-5-amine], where the note is “Table 2”, the EC50 is 0.1 to 100 nM.

On to `CC1CN(c2ccc(Nc3ccc4c(c3)n(C)c(=O)n4C)cc2)CC(C)O1` (centres unmarked) [Compound 279, 5-((4-(2,6-dimethylmorpholino)phenyl)amino)-1,3-dimethyl-1,3-dihydro-2H-benzo[d]imidazol-2-one], for which the EC50 (Table 2) is 0.1 to 100 nM. With `O=C1CCOc2cc(Nc3ccc(N4CCC(O)(C(F)(F)F)CC4)cc3)ccc2N1` [Compound 556, 8-((4-(4-hydroxy-4-(trifluoromethyl)piperidin-1-yl)phenyl)amino)-2,3-dihydrobenzo[b][1,4]oxazepin-4(5H)-one], for the setting “Table 3”, the EC50 lay in the range of 0.1 to 100 nM. For the compound `Cc1cc(N2CCC(C(F)(F)F)CC2)ccc1Nc1ccc2c(c1)OC(CO)C(=O)N2C` (centres unmarked) [Compound 570, 2-(hydroxymethyl)-4-methyl-7-((2-methyl-4-(4-(trifluoromethyl)piperidin-1-yl)phenyl)amino)-2H-benzo[b][1,4]oxazin-3(4H)-one], the EC50 (Table 3) is 0.1 to 100 nM. Consider `CCC1CN(c2ccc(Nc3ccc4c(c3)OCCC(=O)N4)c(C)n2)CCO1` (centres unmarked) [Compound 557, 8-((6-(2-ethylmorpholino)-2-methylpyridin-3-yl)amino)-2,3-dihydrobenzo[b][1,4]oxazepin-4(5H)-one], for which the EC50 (Table 3) was in the range of 0.1 to 100 nM. For `COC1(C(F)(F)F)CCN(c2ccc(Nc3ccc4c(c3)oc(=O)n4C)cc2)CC1` [Compound 386, 6-((4-(4-methoxy-4-(trifluoromethyl)piperidin-1-yl)phenyl)amino)-3-methylbenzo[d]oxazol-2(3H)-one], the EC50 (Table 2) was 0.1 to 100 nM. Consider `O=C1COc2cc(Nc3ccc(N4CCC(C(F)(F)F)CC4)nc3)ccc2N1` [Compound 474, 7-((6-(4-(trifluoromethyl)piperidin-1-yl)pyridin-3-yl)amino)-2H-benzo[b][1,4]oxazin-3(4H)-one], for which the EC50 (Table 3) is 0.1 to 100 nM.

As a reminder, the EC50 is the midpoint of the concentration-response curve.
